Laboratory results reported in patent US9365522B2, “Pyrazole amide derivative” (AMGEN INC., priority 2015, dated 2016).

Target: T1, ligand binding domain of human ROR gamma (Homo sapiens, UniProt P51449)
T1 construct: NM_001001523; expressed in transfected cells; host or cells: HEK293T
T1 sequence (P51449 247-497 isoform P51449-2): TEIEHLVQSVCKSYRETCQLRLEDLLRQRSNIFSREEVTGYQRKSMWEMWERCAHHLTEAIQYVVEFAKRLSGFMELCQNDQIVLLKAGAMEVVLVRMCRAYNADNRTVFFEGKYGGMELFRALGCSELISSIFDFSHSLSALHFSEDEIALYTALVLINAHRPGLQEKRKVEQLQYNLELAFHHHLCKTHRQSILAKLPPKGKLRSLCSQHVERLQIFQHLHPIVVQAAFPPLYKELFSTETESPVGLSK
Assay: ROR gamma reporter gene assay (GAL4-RORγ LBD luciferase, Dual-Glo)
Format: cell-based
Details: HEK293T cells transfected with pM-ROR gamma, 8 concentrations 3.5 nM to 10.5 μM, 24 h incubation; read-out: result (pIC50, inhibition of RORγ transcriptional activity) (converted)
In short: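 HEK293T cells were co-transfected with GAL4 DBD fused to human RORγ LBD (aa 247-497), a 5×UAS firefly luciferase reporter and CMV-driven renilla luciferase, in medium with 10% charcoal-stripped FBS.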

| Structure (SMILES) | IC50 [pM] |
| --- | --- |
| CC(C)CC1(N(CC(=O)c2c(Cl)cncc2Cl)C(=O)c2cnn([C@H]3CC[C@](C)(C(=O)O)CC3)c2C(F)(F)F)CC1 [Example 319, trans-4-(4-((2-(3,5-dichloropyridin-4-yl)-2-oxoethyl)-(1-(2-methylpropyl)cyclopropyl)carbamoyl)-5-(trifluoromethyl)pyrazol-1-yl)-1-methylcyclohexane-1-carboxylic acid] | 141000 |
| O=C(CN(Cc1cc(F)cc(F)c1)C(=O)c1cnn([C@H]2CC[C@H](C(=O)O)CC2)c1C(F)(F)F)c1ccccc1Cl [Example 99, trans-4-(4-((2-(2-chlorophenyl)-2-oxoethyl)-((3,5-difluorophenyl)methyl)carbamoyl)-5-(trifluoromethyl)pyrazol-1-yl)cyclohexane-1-carboxylic acid] | 105000 |
| CC1(C)[C@@H]2C[C@H](N(C[C@@H](O)c3ncccc3Cl)C(=O)c3cnn([C@H]4CC[C@](C)(C(=O)O)CC4)c3C(F)(F)F)C[C@@H]21 [Example 391, trans-4-(4-((2-(3-chloropyridin-2-yl)-2-hydroxyethyl)((1R,3r,5S)-6,6-dimethylbicyclo[3.1.0]hexan-3-yl)carbamoyl)-5-(trifluoromethyl)-1H-pyrazol-1-yl)-1-methylcyclohexanecarboxylic acid] | 141000 |
| O=C(CN(Cc1cc(F)cc(F)c1)C(=O)c1cnn([C@H]2CC[C@H](C(=O)O)CC2)c1C(F)(F)F)c1ccncc1 [Example 62, trans-4-(4-((3,5-difluorobenzyl)(2-oxo-2-(pyridin-4-yl)ethyl)carbamoyl)-5-(trifluoromethyl)-1H-pyrazol-1-yl)cyclohexanecarboxylic acid] | > 1e+07 |
| CC(CN(C(=O)c1cnn([C@H]2CC[C@](C)(C(=O)O)CC2)c1C(F)(F)F)[C@H]1C[C@@H]2[C@H](C1)C2(C)C)c1c[nH]c2cccc(Cl)c12 (stereo partly drawn) [Example 377, trans-4-(4-((2-(4-chloro-1H-indol-3-yl)propyl)((1R,3r,5S)-6,6-dimethylbicyclo[3.1.0]hexan-3-yl)carbamoyl)-5-(trifluoromethyl)-1H-pyrazol-1-yl)-1-methylcyclohexanecarboxylic acid] | 437000 |
| COc1cccc(Cl)c1C(O)CN(C(=O)c1cnn([C@H]2CC[C@](C)(C(=O)O)CC2)c1C(F)(F)F)C1CCC(C)(C)CC1 (stereo partly drawn) [Example 336, trans-4-(4-((2-(2-chloro-6-methoxyphenyl)-2-hydroxyethyl)-(4,4-dimethylcyclohexyl)carbamoyl)-5-(trifluoromethyl)pyrazol-1-yl)-1-methylcyclohexane-1-carboxylic acid] | 145000 |
| O=C(CN(Cc1ccc(F)cc1)C(=O)c1cnn([C@H]2CC[C@](F)(C(=O)O)CC2)c1C(F)(F)F)c1c(Cl)cncc1Cl [Example 81, cis-4-(4-((2-(3,5-dichloropyridin-4-yl)-2-oxoethyl)(4-fluorobenzyl)carbamoyl)-5-(trifluoromethyl)-1H-pyrazol-1-yl)-1-fluorocyclohexanecarboxylic acid] | 93300 |
| O=C(CN(Cc1cc(F)cc(F)c1)C(=O)c1cnn([C@H]2CC[C@H](C(=O)O)CC2)c1CO)c1c(Cl)cncc1Cl [Example 159, trans-4-(4-((2-(3,5-dichloropyridin-4-yl)-2-oxoethyl)-((3,5-difluorophenyl)methyl)carbamoyl)-5-(hydroxymethyl)pyrazol-1-yl)cyclohexane-1-carboxylic acid] | > 1e+07 |
| COc1cccc(Cl)c1[C@@H](O)CN(C(=O)c1cnn([C@H]2CC[C@](C)(C(=O)O)CC2)c1C(F)(F)F)[C@H]1C[C@@H]2[C@H](C1)C2(C)C [Example 341, trans-4-(4-((2-(2-chloro-6-methoxyphenyl)-2-hydroxyethyl)((1R,3r,5S)-6,6-dimethylbicyclo[3.1.0]hexan-3-yl)carbamoyl)-5-(trifluoromethyl)-1H-pyrazol-1-yl)-1-methylcyclohexanecarboxylic acid] | 759000 |

The remaining lines, values ahead:

| IC50 [pM] | Structure (SMILES) |
| --- | --- |
| 4900 | CC1(C)[C@@H]2C[C@H](N(CC(=O)c3c(Cl)cc(Cl)cc3Cl)C(=O)c3cnn([C@H]4CC[C@](C)(C(=O)O)CC4)c3C(F)(F)F)C[C@@H]21 [Example 219, trans-4-(4-(((1R,3r,5S)-6,6-dimethyl-3-bicyclo[3.1.0]hexanyl)-(2-oxo-2-(2,4,6-trichlorophenyl)ethyl)carbamoyl)-5-(trifluoromethyl)pyrazol-1-yl)-1-methylcyclohexane-1-carboxylic acid] |
| 15500 | O=C(CN(Cc1cc(F)cc(F)c1)C(=O)c1cnn([C@H]2CC[C@H](C(=O)O)CC2)c1C(F)(F)F)c1c(Cl)cc(Cl)cc1Cl [Example 56, trans-4-(4-((3,5-difluorobenzyl)(2-oxo-2-(2,4,6-trichlorophenyl)ethyl)carbamoyl)-5-(trifluoromethyl)-1H-pyrazol-1-yl)cyclohexanecarboxylic acid] |
| 1.55e+06 | O=C(CN(C[C@@H]1CCOC1)C(=O)c1cnn([C@H]2CC[C@H](C(=O)O)CC2)c1C(F)(F)F)c1c(Cl)cncc1Cl [Example 38, trans-4-(4-((2-(3,5-dichloropyridin-4-yl)-2-oxoethyl)(((S)-tetrahydrofuran-3-yl)methyl)carbamoyl)-5-(trifluoromethyl)-1H-pyrazol-1-yl)cyclohexanecarboxylic acid] |
| 155000 | O=C(CN(Cc1ccc(F)cc1)C(=O)c1cnn([C@H]2CC[C@H](C(=O)O)C2)c1C(F)(F)F)c1c(Cl)cncc1Cl [Example 92, (1S,3S)-3-(4-((2-(3,5-dichloropyridin-4-yl)-2-oxoethyl)-((4-fluorophenyl)methyl)carbamoyl)-5-(trifluoromethyl)pyrazol-1-yl)cyclopentane-1-carboxylic acid] |
| 75900 | O=C(CN(CC1CCCC1)C(=O)c1cnn([C@H]2CC[C@H](C(=O)O)CC2)c1C(F)(F)F)c1c(Cl)cncc1Cl [Example 29, trans-4-(4-((cyclopentylmethyl)(2-(3,5-dichloropyridin-4-yl)-2-oxoethyl)carbamoyl)-5-(trifluoromethyl)-1H-pyrazol-1-yl)cyclohexanecarboxylic acid] |
| 4370 | Cc1cc(Cl)c(C(=O)CN(CC2CC(C)(C)C2)C(=O)c2cnn([C@H]3CC[C@](C)(C(=O)O)CC3)c2C(F)(F)F)c(Cl)c1 [Example 238, trans-4-(4-((2-(2,6-dichloro-4-methylphenyl)-2-oxoethyl)-((3,3-dimethylcyclobutyl)methyl)carbamoyl)-5-(trifluoromethyl)pyrazol-1-yl)-1-methylcyclohexane-1-carboxylic acid] |
| 56200 | CC(C)(C)CN(CC(=O)c1c(Cl)cncc1Cl)C(=O)c1cnn([C@H]2CC[C@H](C(=O)O)CC2)c1C(F)(F)F [Example 27, trans-4-(4-((2-(3,5-dichloropyridin-4-yl)-2-oxoethyl)(neopentyl)carbamoyl)-5-(trifluoromethyl)-1H-pyrazol-1-yl)cyclohexanecarboxylic acid] |
| 191000 | CC1(C)CCC(N(CC(=O)c2c(Cl)cc(F)cc2Cl)C(=O)c2cnn([C@H]3C[C@H](C(=O)O)C3)c2C(F)(F)F)CC1 [Example 290, trans-3-(4-((2-(2,6-dichloro-4-fluorophenyl)-2-oxoethyl)-(4,4-dimethylcyclohexyl)carbamoyl)-5-(trifluoromethyl)pyrazol-1-yl)cyclobutane-1-carboxylic acid] |
